Measured values: PubChem BioAssay (NCI)
Several values for one entry are separate records, joined by “and”; a condition that tells them apart may be missing. Equal entries are not always repeated.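 Protocol summary: plate cells (96-well), add compound at 5 concentrations, incubate 48 h, interpolate endpoints linearly. Here, GI50 denotes the concentration required for 50% inhibition of growth. TGI: concentration producing complete growth inhibition.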

Tests used:
Assay in all cases: NCI-60 cell line screen, 48 h
MDA-MB-435 = test system: MDA-MB-435
OVCAR-3 ovarian = test system: OVCAR-3 ovarian
SK-MEL-28 melanoma = test system: SK-MEL-28 melanoma
RPMI-8226 leukemia = test system: RPMI-8226 leukemia
HT29 colon = test system: HT29 colon
K-562 leukemia = test system: K-562 leukemia
HCT-15 colon = test system: HCT-15 colon
MCF7 breast = test system: MCF7 breast
ACHN renal = test system: ACHN renal
HL-60(TB) leukemia = test system: HL-60(TB) leukemia

Compound	GI50 (MDA-MB-435)	TGI (MDA-MB-435)	GI50 (OVCAR-3 ovarian)	TGI (OVCAR-3 ovarian)	GI50 (SK-MEL-28 melanoma) [µM]	TGI (SK-MEL-28 melanoma)	GI50 (RPMI-8226 leukemia)	TGI (RPMI-8226 leukemia)	GI50 (HT29 colon)	TGI (HT29 colon)	GI50 (K-562 leukemia)	TGI (K-562 leukemia) [µM]	GI50 (HCT-15 colon)	TGI (HCT-15 colon)	GI50 (MCF7 breast)	TGI (MCF7 breast)	GI50 (ACHN renal)	TGI (ACHN renal)	GI50 (HL-60(TB) leukemia)	TGI (HL-60(TB) leukemia)
CC(=O)N1c2ccc(-c3ccc(C(=O)O)cc3)cc2[C@H](Nc2ccc(Cl)cc2)C[C@@H]1C	0.233 µM	> 56 µM	0.343 µM	18.8 µM	0.494	34.8 µM	0.0615 µM	18.6 µM	0.122 µM	29 µM	0.168 µM	> 55.2	0.0613 µM	13.5 µM	0.0273 µM	> 100 µM	0.41 µM	21.9 µM	0.0384 µM	11.1 µM
COc1ccc(-c2cc3c(N)ncnc3o2)cc1	> 25 µM	> 25 µM	> 25 µM	> 25 µM	> 25	> 25 µM	> 25 µM	> 25 µM	> 22.7 µM	> 25 µM	> 25 µM	> 25	> 25 µM	> 25 µM	> 25 µM	> 25 µM	> 25 µM	> 25 µM	> 25 µM	> 25 µM
CCC(=O)OCN1C(=O)C=CC1=O	17.4 µM	32.8 µM and 28.5 µM	12.9 µM	25.7 µM and 18.6 µM		33.3 µM and 33.4 µM	19.3 µM and 4.42 µM	56.2 µM and 13.5 µM		40.8 µM and 35.9 µM	4.19 µM		20.1 µM	39.7 µM and 56.8 µM		40.9 µM and 39.7 µM	15.1 µM	28.5 µM and 19.7 µM	17.3 µM	70.4 µM and 8.36 µM
CC(C)Cn1cnc2c(SCc3ccccn3)nc(N)nc21		> 100 µM		> 100 µM		> 100 µM		> 100 µM		> 100 µM		> 100		> 100 µM		> 100 µM		> 100 µM		> 100 µM
CCC(=O)Oc1ccc(/C=N/NC(N)=S)nc1	7.86 µM	> 100 µM	3.37 µM	> 100 µM	34.3	> 100 µM	28.5 µM	> 100 µM	19.3 µM	> 100 µM	5.05 µM	> 100	6.38 µM	> 100 µM	1.88 µM	> 100 µM	1.01 µM	21 µM	2.17 µM	> 100 µM
Nc1nc(N)c(-c2ccc(Cl)cc2)c(/C=C/c2ccc([N+](=O)[O-])cc2)n1	4.44 µM	> 100 µM	5.76 µM	31.1 µM	26.6	> 100 µM	5.8 µM	> 100 µM	4.99 µM	> 100 µM	3.16 µM	> 100	3.97 µM	> 100 µM	3.16 µM	> 100 µM	3.85 µM	> 100 µM	5.64 µM	> 100 µM
CC1(C)N=C(N)N=C(N)N1c1ccc(CCC(=O)Nc2cccc(S(=O)(=O)F)c2)cc1	4.9 µM	> 100 µM	54.1 µM	> 100 µM	81.1	> 100 µM	36.4 µM	> 100 µM	5.62 µM	> 100 µM	1.35 µM	> 100	30.7 µM	> 100 µM	6.48 µM	> 100 µM	52.5 µM	> 100 µM	2.86 µM	> 100 µM
NS(=O)(=O)c1ccc(N=Nc2c(=O)[nH]c3ccc4[nH]cccc4c23)cc1	0.553 µM	> 25 µM	0.375 µM	1.98 µM	0.518	1.64 µM	1.97 µM	14.2 µM	0.875 µM	> 25 µM	0.721 µM	> 25	2.12 µM	> 25 µM	0.129 µM	> 25 µM	0.694 µM	> 25 µM	0.557 µM	1.53 µM
CCCNC(=O)Nc1ccc2c(c1)Cc1cc(N(CCCl)CCCl)ccc1-2		68.9 µM		54.4 µM		35.7 µM		> 100 µM		17.8 µM		> 100		> 100 µM		77.5 µM		33.8 µM		> 100 µM
C=C1C(OCCO)OC2O[C@]3(C)CCC4[C@H](C)CCC1C24OO3 (some centres not stated)	12.9 µM	83.6 µM	15.6 µM	> 100 µM	> 100	> 100 µM	0.591 µM	16.5 µM	7.54 µM	> 100 µM	4.16 µM	> 100	3.88 µM	> 100 µM	17.4 µM	> 100 µM	31.4 µM	> 100 µM	3.1 µM	15.6 µM
CCCC(CCC)C(=O)O	> 100 µM	> 20000 µM	> 100 µM	> 20000 µM		> 100 µM	> 100 µM	> 20000 µM	> 100 µM	> 100 µM and 12400 µM	> 100 µM	> 20000	> 100 µM	> 20000 µM	> 100 µM	> 20000 µM	> 100 µM	> 100 µM and 17400 µM	> 100 µM	> 20000 µM
NCCNc1ncnc2ccc(Cl)cc12		> 100 µM		> 100 µM		> 100 µM		> 100 µM		> 100 µM		> 100		> 100 µM		> 100 µM		> 100 µM		> 100 µM
CN1C(=O)C(C)(C)Oc2c(-c3cn(C)c(=O)c4[nH]ccc34)cc(S(C)(=O)=O)cc21	0.637 µM	> 100 µM	0.999 µM	5.17 µM	3.92	> 100 µM	0.243 µM	4.94 µM	0.339 µM	> 100 µM	0.765 µM	> 100	2.58 µM	39.2 µM	0.338 µM	> 100 µM	1.39 µM	> 100 µM	0.281 µM	0.847 µM
NC(N)=NC(N)=NCc1ccco1	> 1250 µM	> 1250 µM	847 µM	> 1250 µM	> 1250	> 1250 µM	818 µM		> 1250 µM	> 1250 µM	264 µM	> 1250	> 1250 µM	> 1250 µM	600 µM	> 1250 µM	> 1250 µM	> 1250 µM	390 µM	> 1250 µM
CC(=O)Nc1cc(CN2CCCCC2)c(O)c2ncccc12		> 100 µM		96.9 µM		> 100 µM		51.1 µM		> 100 µM		> 100		> 100 µM		> 100 µM		72.2 µM		36.8 µM
COc1ccc(-c2cc(=O)c3cccnc3[nH]2)cc1	20 µM	91.6 µM	29.9 µM	> 100 µM		> 100 µM		> 100 µM		38.4 µM		88.6		> 100 µM		> 100 µM		> 100 µM	13 µM	57.1 µM
C=CC(=O)Nc1cccc(Nc2nc(Nc3ccc(N4CCN(C(C)=O)CC4)cc3OC)ncc2C(F)(F)F)c1	4.11 µM and 2.95 µM	> 10 µM and 19.2 µM	3.69 µM and 1.07 µM	> 30.3 µM	8.43	> 93.1 µM	4.17 µM and 3.43 µM	> 10 µM and 25.6 µM	2.18 µM and 1.55 µM	> 27.1 µM	8.12 µM and 5.61 µM	> 100	3.06 µM and 2.94 µM	> 10 µM and 13.8 µM	1.41 µM and 0.933 µM	> 100 µM	2.96 µM and 1.84 µM	> 30.3 µM	1.26 µM and 2.26 µM	> 34 µM
